{"source": "patent US20260373156A1", "about": "“CANCER TREATMENTS USING MTA-COOPERATIVE PRMT5 INHIBITORS” (AMGEN INC., priority 2022, published 2026)", "test_system": "A549 cells", "assay": "CellTiter-Glo viability and CalcuSyn synergy, PRMT5 inhibitor + palbociclib, 6 days", "conditions": "for Combination Fa: 8640 min", "key": {"[1]": {"conditions": "Compound B 0.1535 μM + palbociclib 0.298023 μM"}, "[2]": {"conditions": "Compound B 0.1535 μM + palbociclib 0.476837 μM"}, "[3]": {"conditions": "Compound B 0.1535 μM + palbociclib 0.762939 μM"}, "[4]": {"conditions": "Compound B 0.1535 μM + palbociclib 1.2207 μM"}, "[5]": {"conditions": "Compound B 0.1535 μM + palbociclib 1.95313 μM"}, "[6]": {"conditions": "Compound B 0.1535 μM + palbociclib 3.125 μM"}, "[7]": {"conditions": "Compound B 0.1535 μM + palbociclib 5 μM"}}, "data": [{"compound": "Cc1cc2cc(C(=O)N(Cc3ccc(C(F)(F)F)cn3)[C@@H](C)c3ncccn3)ccc2nc1N", "note": "[Compound B]", "values": [{"measurement": "Computed CI value", "setting": "[1]", "value": 0.293}, {"measurement": "Combination Fa", "setting": "[1]", "value": 0.6994}, {"measurement": "Computed CI value", "setting": "[2]", "value": 0.341}, {"measurement": "Combination Fa", "setting": "[2]", "value": 0.7105}, {"measurement": "Computed CI value", "setting": "[3]", "value": 0.497}, {"measurement": "Combination Fa", "setting": "[3]", "value": 0.7007}, {"measurement": "Computed CI value", "setting": "[4]", "value": 0.421}, {"measurement": "Combination Fa", "setting": "[4]", "value": 0.7619}, {"measurement": "Computed CI value", "setting": "[5]", "value": 0.626}, {"measurement": "Combination Fa", "setting": "[5]", "value": 0.761}, {"measurement": "Computed CI value", "setting": "[6]", "value": 0.685}, {"measurement": "Combination Fa", "setting": "[6]", "value": 0.7958}, {"measurement": "Computed CI value", "setting": "[7]", "value": 0.377}, {"measurement": "Combination Fa", "setting": "[7]", "value": 0.8818}]}]}
